This is an account of results in ChEMBL document CHEMBL1138904, “2-Aryl(pyrrolidin-4-yl)acetic acids are potent agonists of sphingosine-1-phosphate (S1P) receptors” (Bioorg Med Chem Lett, 2006).

Series [1] can be described thus: Oral bioavailability in Sprague-Dawley rat at 1 mg/kg, iv and 2 mg/kg, po. The series is classed as ADME, organism-based. Particulars: in vivo.
For series [2], the target named is Sphingosine 1-phosphate receptor 2 (Homo sapiens, UniProt O95136). Kind of series: Displacement of [33P]S1P from human S1P2 receptor expressed in CHO cells. The series is classed as cell-based.
Sequence of Sphingosine 1-phosphate receptor 2 (O95136 whole entry): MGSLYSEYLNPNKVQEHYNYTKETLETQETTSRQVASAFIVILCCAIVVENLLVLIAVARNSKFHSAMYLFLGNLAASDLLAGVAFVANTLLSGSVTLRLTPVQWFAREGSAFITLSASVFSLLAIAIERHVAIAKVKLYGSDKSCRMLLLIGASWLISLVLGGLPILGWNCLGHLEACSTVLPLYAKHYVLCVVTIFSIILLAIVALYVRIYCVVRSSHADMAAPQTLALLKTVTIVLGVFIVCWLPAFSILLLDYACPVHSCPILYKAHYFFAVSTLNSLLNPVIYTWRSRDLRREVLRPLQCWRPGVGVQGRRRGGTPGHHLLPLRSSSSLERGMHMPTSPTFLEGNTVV
The test system of series [3] is PBL. The series is described as follows: Reduction in peripheral blood lymphocyte count in mouse at 10 mg/kg, po relative to control. In kind it is functional. Also noted: scale not given: the % may be the effect or the level left.
For series [4], the target named is T1, Sphingosine 1-phosphate receptor 4 (Homo sapiens, UniProt O95977).
T1 sequence (O95977 whole entry): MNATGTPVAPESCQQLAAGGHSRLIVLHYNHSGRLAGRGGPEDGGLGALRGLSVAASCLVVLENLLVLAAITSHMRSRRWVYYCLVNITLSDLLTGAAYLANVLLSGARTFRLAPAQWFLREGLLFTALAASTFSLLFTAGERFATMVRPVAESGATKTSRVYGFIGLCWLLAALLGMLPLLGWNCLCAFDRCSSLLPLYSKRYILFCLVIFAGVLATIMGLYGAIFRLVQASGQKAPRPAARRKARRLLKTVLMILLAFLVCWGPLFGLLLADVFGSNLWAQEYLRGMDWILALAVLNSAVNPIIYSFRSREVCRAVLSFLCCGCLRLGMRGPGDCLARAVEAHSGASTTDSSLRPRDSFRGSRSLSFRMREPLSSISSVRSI
The series is described as follows: Displacement of [33P]S1P from human S1P4 receptor expressed in CHO cells. In kind it is cell-based.

In series [5] the target is Sphingosine 1-phosphate receptor 5 (Homo sapiens, UniProt Q9H228). Kind of series: Displacement of [33P]S1P from human S1P5 receptor expressed in CHO cells. In kind it is cell-based.
Sequence of Sphingosine 1-phosphate receptor 5 (Q9H228 whole entry): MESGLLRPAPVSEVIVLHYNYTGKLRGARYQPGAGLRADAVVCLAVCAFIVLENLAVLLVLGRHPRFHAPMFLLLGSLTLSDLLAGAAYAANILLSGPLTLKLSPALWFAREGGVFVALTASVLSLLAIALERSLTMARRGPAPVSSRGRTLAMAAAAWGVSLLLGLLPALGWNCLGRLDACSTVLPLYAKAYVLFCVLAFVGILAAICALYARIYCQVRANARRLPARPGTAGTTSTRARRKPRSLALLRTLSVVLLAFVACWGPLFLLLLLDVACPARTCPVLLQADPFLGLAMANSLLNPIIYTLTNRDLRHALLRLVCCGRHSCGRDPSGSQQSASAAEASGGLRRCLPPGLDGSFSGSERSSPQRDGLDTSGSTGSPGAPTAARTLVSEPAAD
The target of series [6] is Sphingosine 1-phosphate receptor 3 (Homo sapiens, UniProt Q99500). The series is described as follows: Displacement of [33P]S1P from human S1P3 receptor expressed in CHO cells. In kind it is cell-based.
Sequence of Sphingosine 1-phosphate receptor 3 (Q99500 whole entry): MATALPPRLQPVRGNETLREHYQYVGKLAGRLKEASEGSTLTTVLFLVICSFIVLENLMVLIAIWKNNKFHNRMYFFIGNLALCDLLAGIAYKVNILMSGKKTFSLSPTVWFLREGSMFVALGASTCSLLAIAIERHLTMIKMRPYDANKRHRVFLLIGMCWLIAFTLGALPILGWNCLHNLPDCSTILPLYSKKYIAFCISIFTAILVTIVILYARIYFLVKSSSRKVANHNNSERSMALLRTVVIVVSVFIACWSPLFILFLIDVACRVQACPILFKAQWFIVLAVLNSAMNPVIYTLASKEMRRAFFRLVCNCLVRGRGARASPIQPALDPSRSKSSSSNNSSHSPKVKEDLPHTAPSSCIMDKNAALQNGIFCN
The target of series [7] is Sphingosine 1-phosphate receptor 1 (Homo sapiens, UniProt P21453). The series is described as follows: Displacement of [33P]S1P from human S1P1 receptor expressed in CHO cells. In kind it is cell-based.
Sequence of Sphingosine 1-phosphate receptor 1 (P21453 whole entry): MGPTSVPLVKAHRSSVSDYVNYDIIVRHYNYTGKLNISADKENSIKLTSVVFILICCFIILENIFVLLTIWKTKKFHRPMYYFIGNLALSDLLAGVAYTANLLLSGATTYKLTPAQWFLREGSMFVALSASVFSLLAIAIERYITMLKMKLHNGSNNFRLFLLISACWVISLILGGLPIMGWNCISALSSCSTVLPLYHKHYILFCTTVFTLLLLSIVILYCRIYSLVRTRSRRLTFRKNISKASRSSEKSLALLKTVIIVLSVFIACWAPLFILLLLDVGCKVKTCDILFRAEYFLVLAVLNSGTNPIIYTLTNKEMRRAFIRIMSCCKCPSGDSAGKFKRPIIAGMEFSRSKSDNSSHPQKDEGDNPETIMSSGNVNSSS
The nature of series [8]: Half life in Sprague-Dawley rat at 1 mg/kg, iv and 2 mg/kg, po. In kind it is ADME, organism-based. Particulars: in vivo.
The nature of series [9]: Volume of distribution in Sprague-Dawley rat at 1 mg/kg, iv and 2 mg/kg, po. In kind it is ADME, organism-based. Particulars: in vivo, read-out: Vss.
Series [10] in a line: Clearance in Sprague-Dawley rat at 1 mg/kg, iv and 2 mg/kg, po. The series is classed as ADME, organism-based. To be noted: in vivo.
The test system of series [11] is PBL. Kind of series: […] of peripheral blood lymphocyte in mouse at 1 mg/kg, po. In kind it is functional, organism-based. Also noted: dose 1 mg/kg.
The test system of series [12] is PBL. The series is described as follows: […] of peripheral blood lymphocyte in orally dosed mouse. In kind it is functional, organism-based.

SMILES strings stand for the structures. The source made the active and inactive calls. The rule behind the calls is not given here. Bounds are passed on as bounds.

On to `CC(C)Cc1ccc(-c2nc(-c3ccc(CN4CC(C(=O)O)C4)cc3)no2)cc1`, for which the bioavailability in series [1] is 67%.

With `O=C(O)CC1CNC(c2ccc(OCc3cc(-c4ccccc4)c(C(F)(F)F)s3)cc2)C1` (stereo not given), the IC50 in series [2] is over 10000 nM; in series [4] it was 390 nM; in series [5], 390 nM; in [6], 2100 nM; in [7], 2.2 nM. Also, the Activity in the series on PBL [3] is recorded as 39%.

With `O=C(O)C1CNC(c2ccc(OCc3cc(-c4ccccc4)c(C(F)(F)F)s3)cc2)C1` (stereo not given), the IC50 was over 10000 nM in [2]; 2700 nM in [4]; 130 nM in [5]; 4800 nM in series [6]; 25 nM in series [7].

`O=C(O)C[C@@H]1CN[C@@H](c2ccc(-c3noc(-c4ccc(C5CCC(F)(F)CC5)cc4)n3)cc2)C1` (relative stereo) had a half-life in [8] of 4.4 h. In addition, the IC50 in [2] is over 10000 nM; in [4], 110 nM; in series [5], 21 nM; in [6] it was 460 nM; in series [7], 2 nM. In series [9], the Vd is 2.2 L/kg. Further, in series [1], the bioavailability was determined as 23%. The same molecule had a clearance in series [10] of 3.5 mL/min/kg. The outcome in the series on PBL [11] and in the series with PBL [12] was Active.

In the case of `O=C(O)C[C@@H]1CN[C@@H](c2ccc(-c3noc(-c4ccc(C5CCCC5)cc4)n3)cc2)C1` (relative stereo), the IC50 was over 10000 nM in series [2]; 120 nM in series [4]; 68 nM in series [5]; over 1000 nM in series [6]; 1 nM in [7].

In the case of `O=C(O)C[C@@H]1CN[C@@H](c2ccc(-c3noc(-c4ccc(C5CCCCC5)cc4)n3)cc2)C1` (relative stereo), the IC50 in series [2] is over 10000 nM; in series [4], 110 nM; in series [5], 57 nM; in series [6] it was 3100 nM; in series [7], 1.4 nM. Also, the outcome in the series with PBL [12] was Active.

In [8], `CC(C)Cc1ccc(-c2nc(-c3ccc([C@H]4C[C@@H](CC(=O)O)CN4)cc3)no2)cc1` (relative stereo) showed a half-life of 10.9 h. In addition, the IC50 in [2] is over 10000 nM; in [4] it was 160 nM; in [5], 140 nM; in series [6] it was 1500 nM; in [7], 7.9 nM. In addition, in series [9], the Vd was determined as 2.9 L/kg. For the same molecule, the bioavailability in series [1] is 27%. In addition, in [10], the clearance stood at 3.4 mL/min/kg. The outcome with PBL [12] was Active.

`CC(C)Cc1ccc(-c2nc(-c3ccc([C@H]4C[C@H](CC(=O)O)CN4)cc3)no2)cc1` (relative stereo) gave a half-life in [8] of 10.7 h. In addition, the IC50 was over 10000 nM in [2]; 150 nM in series [4]; 300 nM in [5]; over 1000 nM in [6]; 5.7 nM in series [7]. The Vd in [9] was found to be 6.6 L/kg. This molecule also returned a bioavailability in [1] of 79%. The molecule further displayed a clearance in series [10] of 7.4 mL/min/kg.

Consider `O=C(O)C[C@@H]1CN[C@@H](c2ccc(-c3noc(-c4ccc(CCC(F)(F)F)cc4)n3)cc2)C1` (relative stereo), for which the IC50 is over 10000 nM in series [2]; 230 nM in series [4]; 50 nM in [5]; over 1000 nM in [6]; 5.5 nM in [7].

Turning to `O=C(O)C[C@@H]1CN[C@@H](c2ccc(-c3noc(-c4ccc([C@@H]5CCC(F)(F)C5)cc4)n3)cc2)C1` (stereo in doubt; 22f) [listing 1 of 2 here], the IC50 was over 10000 nM in [2] (cho); 32 nM in series [4]; 5.1 nM in [5]; 690 nM in [6]; 1.2 nM in series [7].

On to `O=C(O)C[C@@H]1CN[C@@H](c2ccc(-c3noc(-c4ccc([C@@H]5CCC(F)(F)C5)cc4)n3)cc2)C1` (stereo in doubt; 22f) [listing 2 of 2 here], for which the result in the series with PBL [11] was Active.

Consider `O=C(O)C[C@@H]1CN[C@@H](c2ccc(-c3noc(-c4ccc([C@@H]5CCC(F)(F)C5)cc4)n3)cc2)C1` (stereo in doubt; 22g) [listing 1 of 2 here], for which the half-life in [8] is 5.6 h. The IC50 was over 10000 nM in series [2]; 800 nM in [4]; 11 nM in series [5]; 1100 nM in [6]; 0.8 nM in series [7]. Besides, the Vd in series [9] is 1.3 L/kg. Also, the bioavailability in [1] was determined as 36%. This molecule gave a clearance in series [10] of 2.1 mL/min/kg.

For `O=C(O)C[C@@H]1CN[C@@H](c2ccc(-c3noc(-c4ccc([C@@H]5CCC(F)(F)C5)cc4)n3)cc2)C1` (stereo in doubt; 22g) [listing 2 of 2 here], the result in the series on PBL [11] and in the series with PBL [12] was Active.

A word on the bioavailability: it is dose-corrected exposure relative to a reference, in per cent. As a reminder, the IC50 is the midpoint of a concentration-inhibition curve. As usually defined, the half-life is the time in which the quantity being followed falls by half.
